Source: ChEMBL document CHEMBL1201862, “PubChem BioAssay data set” (2004)
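These data come from cells grown in 96-well plates and exposed to compound for 48 hours at five concentrations. GI50: concentration for 50% inhibition of growth.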 The source made the active and inactive calls. Rule as the data show it: active = GI50 up to about 1.1 µM and inactive = higher.

Assays:
Assay in all cases: growth of human tumour cells (NCI), 48 h
CCRF-CEM = system: CCRF-CEM
SK-MEL-2 = system: SK-MEL-2
SNB-75 = system: SNB-75
TK-10 = system: TK-10
UACC-62 = system: UACC-62
NCI-H226 = system: NCI-H226
KM12 = system: KM12
786-0 = system: 786-0
MOLT-4 = system: MOLT-4
M19-MEL = system: M19-MEL
U-251 = system: U-251
XF498 = system: XF498
NCI-H23 = system: NCI-H23
Malme-3M = system: Malme-3M
UO-31 = system: UO-31
A549 = system: A549
SF-539 = system: SF-539
SF-268 = system: SF-268
K562 = system: K562
NCI-H460 = system: NCI-H460
HCT-116 = system: HCT-116
SW-620 = system: SW-620
UACC-257 = system: UACC-257
HCT-15 = system: HCT-15
OVCAR-5 = system: OVCAR-5
CAKI-1 = system: CAKI-1
SK-OV-3 = system: SK-OV-3
EKVX = system: EKVX
LXFL 529 = system: LXFL 529
DMS-114 = system: DMS-114
RPMI-8226 = system: RPMI-8226
A498 = system: A498
HOP-62 = system: HOP-62
HOP-18 = system: HOP-18
OVCAR-3 = system: OVCAR-3
ACHN = system: ACHN
KM-20L2 = system: KM-20L2
IGROV-1 = system: IGROV-1
HCC 2998 = system: HCC 2998
HT-29 = system: HT-29
SK-MEL-5 = system: SK-MEL-5
DMS-273 = system: DMS-273
SN12C = system: SN12C
HL-60 = system: HL-60
RXF 393 = system: RXF 393
OVCAR-4 = system: OVCAR-4
SF-295 = system: SF-295
COLO 205 = system: COLO 205
OVCAR-8 = system: OVCAR-8
M14 = system: M14
DLD-1 = system: DLD-1
NCI-H522 = system: NCI-H522
SNB-19 = system: SNB-19
LOX IMVI = system: LOX IMVI
SK-MEL-28 = system: SK-MEL-28
SR = system: SR
HOP-92 = system: HOP-92
SNB-78 = system: SNB-78
DU-145 = system: DU-145
MCF7 = system: MCF7
PC-3 = system: PC-3
MDA-MB-435 = system: MDA-MB-435
T47D = system: T47D
BT-549 = system: BT-549
MDA-MB-231 = system: MDA-MB-231
Hs-578T = system: Hs-578T
NCI/ADR-RES = system: NCI/ADR-RES

Measured: GI50

OC(CC1SCCCS1)c1ccccc1 (stereo not given)
inactive: CCRF-CEM > 100 µM | SK-MEL-2 > 100 µM | SNB-75 > 100 µM | TK-10 > 100 µM | UACC-62 > 100 µM | NCI-H226 > 100 µM | KM12 > 100 µM | 786-0 > 100 µM | MOLT-4 > 100 µM | M19-MEL > 100 µM | U-251 > 100 µM | XF498 > 100 µM | NCI-H23 > 100 µM | Malme-3M > 100 µM | UO-31 > 100 µM | A549 > 100 µM | SF-539 > 100 µM | SF-268 > 100 µM | K562 > 100 µM | NCI-H460 > 100 µM | HCT-116 > 100 µM | SW-620 > 100 µM | UACC-257 > 100 µM | OVCAR-5 > 100 µM | CAKI-1 > 100 µM | SK-OV-3 > 100 µM | EKVX > 100 µM | LXFL 529 > 100 µM | DMS-114 > 100 µM | RPMI-8226 > 100 µM | A498 > 100 µM | HOP-62 > 100 µM | HOP-18 > 100 µM | OVCAR-3 > 100 µM | ACHN > 100 µM | KM-20L2 > 100 µM | IGROV-1 > 100 µM | HCC 2998 > 100 µM | HT-29 > 100 µM | SK-MEL-5 > 100 µM | DMS-273 > 100 µM | SN12C > 100 µM | HL-60 > 100 µM | RXF 393 > 100 µM | OVCAR-4 > 100 µM | SF-295 > 100 µM | COLO 205 > 100 µM | OVCAR-8 > 100 µM | M14 > 100 µM | DLD-1 > 100 µM | NCI-H522 61.7 µM | SNB-19 > 100 µM
> 100 µM: HCT-15

c1cncc(C2c3[nH]c4ccccc4c3CCN2CCCN2CCCCC2)c1 (stereo not given)
inactive: SK-MEL-2 > 100 µM | SNB-75 > 100 µM | TK-10 > 100 µM | UACC-62 92.9 µM | NCI-H226 > 100 µM | KM12 > 100 µM | 786-0 > 100 µM | MOLT-4 > 100 µM | M19-MEL > 100 µM | U-251 > 100 µM | XF498 57.4 µM | NCI-H23 > 100 µM | Malme-3M 29.7 µM | UO-31 81.1 µM | A549 > 100 µM | LOX IMVI > 100 µM | SF-539 > 100 µM | K562 > 100 µM | SK-MEL-28 20.3 µM | NCI-H460 > 100 µM | HCT-116 > 100 µM | SW-620 > 100 µM | UACC-257 60.7 µM | SR > 100 µM | OVCAR-5 > 100 µM | CAKI-1 > 100 µM | SK-OV-3 > 100 µM | EKVX > 100 µM | LXFL 529 68.7 µM | HOP-92 > 100 µM | DMS-114 > 100 µM | RPMI-8226 > 100 µM | A498 > 100 µM | HOP-62 > 100 µM | SNB-78 > 100 µM | OVCAR-3 51.1 µM | ACHN > 100 µM | KM-20L2 > 100 µM | IGROV-1 > 100 µM | HCC 2998 > 100 µM | HT-29 > 100 µM | SK-MEL-5 37.2 µM | DMS-273 > 100 µM | SN12C > 100 µM | HL-60 > 100 µM | RXF 393 53.6 µM | OVCAR-4 > 100 µM | SF-295 > 100 µM | COLO 205 84.3 µM | OVCAR-8 > 100 µM | M14 18.6 µM | DLD-1 > 100 µM | NCI-H522 > 100 µM | SNB-19 > 100 µM
> 100 µM: HCT-15

CC[C@@]1(O)C(=O)OCc2c1cc1n(c2=O)Cc2cc3cc(O)ccc3nc2-1 [HYDROXYCAMPTOTHECIN]
0.295 µM: HCT-15
inactive: TK-10 2.69 µM | DLD-1 1.2 µM
active: CCRF-CEM < 0.0075 µM | SK-MEL-2 0.473 µM | SNB-75 0.014 µM | UACC-62 < 0.0075 µM | DU-145 0.01 µM | 786-0 0.0241 µM | MOLT-4 0.00944 µM | M19-MEL 0.0513 µM | U-251 < 0.0075 µM | XF498 0.0262 µM | NCI-H23 0.0176 µM | Malme-3M 0.0498 µM | A549 0.0506 µM | LOX IMVI 0.0337 µM | SF-539 0.00826 µM | SR 0.01 µM | MCF7 < 0.0075 µM | OVCAR-5 0.047 µM | CAKI-1 0.00971 µM | SK-OV-3 0.0227 µM | LXFL 529 0.15 µM | HOP-92 0.0277 µM | DMS-114 0.0136 µM | HOP-62 < 0.0109 µM | SNB-78 0.248 µM | HOP-18 0.109 µM | PC-3 0.084 µM | ACHN < 0.0116 µM | KM-20L2 0.0834 µM | IGROV-1 0.476 µM | MDA-MB-435 0.0453 µM | T47D 0.01 µM | BT-549 0.0543 µM | MDA-MB-231 0.867 µM | SN12C 0.0128 µM | HL-60 0.0161 µM | RXF 393 0.0236 µM | OVCAR-4 0.092 µM | Hs-578T 1.04 µM | COLO 205 0.125 µM | OVCAR-8 0.0142 µM | M14 0.0336 µM | NCI/ADR-RES 0.0232 µM | NCI-H522 0.0105 µM
